Common to all, as to experiment: HotSpot kinase screen
Assay type in all cases: biochemical
Common to all, as to conditions: 10μM ATP

The target in one test is TIE2 (Homo sapiens, UniProt Q02763). Further details: purchased Reaction Biology Corporation (contract assay).
Another test concerns the target T1, VEGFR3 (Homo sapiens, UniProt P35916).
T1 construct: purchased Millipore Corporation (Dundee, Scotland) or Reaction Biology Corporation (contract assay)
As for the experimental part:
(§1) Measurement of kinase activity was performed by Reaction Biology Corporation (Reaction Biology Corporation, Malvern, PA), using the HotSpot™ assay. The screen focused on RTKs reported in the literature to play a major role in the regulation of angiogenesis (VEGFR1, VEGFR2, and VEGFR3; fibroblast growth factor receptor [FGFR] 1, 2, and 3; and platelet-derived growth factor receptor beta [PDGFRβ]) as well as an RTK essential for maintaining blood vessel stability (TIE2). For the profiling, specific kinase/substrate pairs and required cofactors were prepared in a reaction buffer (20mM Hepes [pH 7.5], 10mM MgCl2, 1mM EGTA, 0.02% Brij35, 0.02 mg/mL BSA, 0.1mM Na3VO4, 2mM DTT, 1% dimethyl sulfoxide [DMSO]). TKI compounds were diluted to 10μM and 1μM concentrations for the screens and after addition to the reaction buffer incubated for 20 minutes, followed by the addition of a mixture of ATP (Sigma, St. Louis, MO) and ^33P-ATP (Perkin Elmer, Waltham, MA) to a final ATP concentration of 10μM. Reactions were carried out at room temperature for 2 hours, followed by spotting of the reactions onto P81 ion exchange filter paper (Whatman Inc., Piscataway, NJ). Unbound phosphate was removed by extensive washing of the filters. […] Kinome TREEspot images representing levels of inhibition were prepared using Kinome Mapper (https://www.reactionbiology.com/resources/tools/kinase-mapper).

The next test concerns the target T2, FGFR2 (Homo sapiens, UniProt P21802).
T2 construct: purchased Reaction Biology Corporation (contract assay)
As to the method:
as §1

A further test has as its target VEGFR1 (Homo sapiens, UniProt P17948). More on the design: purchased Millipore Corporation (Dundee, Scotland) or Reaction Biology Corporation (contract assay). As to the method:
as §1

The next test has as its target T3, FGFR1 (Homo sapiens, UniProt P11362).
T3 construct: purchased Reaction Biology Corporation (contract assay)

Each structure is given as a SMILES string.

Chain of TIE2 (Q02763 23-1124): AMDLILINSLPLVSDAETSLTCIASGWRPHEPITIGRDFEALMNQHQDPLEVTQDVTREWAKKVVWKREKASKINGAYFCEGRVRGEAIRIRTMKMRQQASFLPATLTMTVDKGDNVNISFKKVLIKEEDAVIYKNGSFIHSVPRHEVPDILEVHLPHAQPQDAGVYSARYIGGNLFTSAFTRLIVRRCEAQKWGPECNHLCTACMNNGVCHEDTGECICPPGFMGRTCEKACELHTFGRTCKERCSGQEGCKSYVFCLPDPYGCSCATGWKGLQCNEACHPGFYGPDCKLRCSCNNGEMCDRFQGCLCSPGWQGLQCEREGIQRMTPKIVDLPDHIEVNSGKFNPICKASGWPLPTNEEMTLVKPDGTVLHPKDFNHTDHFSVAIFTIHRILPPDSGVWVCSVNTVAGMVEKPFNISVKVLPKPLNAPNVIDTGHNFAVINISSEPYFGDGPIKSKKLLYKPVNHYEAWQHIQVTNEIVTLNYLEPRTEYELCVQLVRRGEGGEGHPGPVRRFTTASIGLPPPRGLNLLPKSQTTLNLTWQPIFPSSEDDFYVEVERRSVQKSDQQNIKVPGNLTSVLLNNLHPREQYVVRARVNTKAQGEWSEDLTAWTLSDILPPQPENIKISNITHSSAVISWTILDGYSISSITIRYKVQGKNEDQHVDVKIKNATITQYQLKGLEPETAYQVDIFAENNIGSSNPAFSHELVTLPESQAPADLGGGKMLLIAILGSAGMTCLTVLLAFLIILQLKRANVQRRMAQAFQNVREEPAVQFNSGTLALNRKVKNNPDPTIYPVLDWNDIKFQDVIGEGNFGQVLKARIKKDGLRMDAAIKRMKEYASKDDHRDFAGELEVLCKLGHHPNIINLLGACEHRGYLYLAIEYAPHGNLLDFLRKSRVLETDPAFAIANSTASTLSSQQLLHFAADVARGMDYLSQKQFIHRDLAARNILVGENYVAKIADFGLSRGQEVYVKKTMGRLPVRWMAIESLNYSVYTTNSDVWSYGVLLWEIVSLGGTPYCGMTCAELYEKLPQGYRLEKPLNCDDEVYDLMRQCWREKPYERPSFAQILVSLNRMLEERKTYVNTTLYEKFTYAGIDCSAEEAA
T3 sequence (P11362 22-822): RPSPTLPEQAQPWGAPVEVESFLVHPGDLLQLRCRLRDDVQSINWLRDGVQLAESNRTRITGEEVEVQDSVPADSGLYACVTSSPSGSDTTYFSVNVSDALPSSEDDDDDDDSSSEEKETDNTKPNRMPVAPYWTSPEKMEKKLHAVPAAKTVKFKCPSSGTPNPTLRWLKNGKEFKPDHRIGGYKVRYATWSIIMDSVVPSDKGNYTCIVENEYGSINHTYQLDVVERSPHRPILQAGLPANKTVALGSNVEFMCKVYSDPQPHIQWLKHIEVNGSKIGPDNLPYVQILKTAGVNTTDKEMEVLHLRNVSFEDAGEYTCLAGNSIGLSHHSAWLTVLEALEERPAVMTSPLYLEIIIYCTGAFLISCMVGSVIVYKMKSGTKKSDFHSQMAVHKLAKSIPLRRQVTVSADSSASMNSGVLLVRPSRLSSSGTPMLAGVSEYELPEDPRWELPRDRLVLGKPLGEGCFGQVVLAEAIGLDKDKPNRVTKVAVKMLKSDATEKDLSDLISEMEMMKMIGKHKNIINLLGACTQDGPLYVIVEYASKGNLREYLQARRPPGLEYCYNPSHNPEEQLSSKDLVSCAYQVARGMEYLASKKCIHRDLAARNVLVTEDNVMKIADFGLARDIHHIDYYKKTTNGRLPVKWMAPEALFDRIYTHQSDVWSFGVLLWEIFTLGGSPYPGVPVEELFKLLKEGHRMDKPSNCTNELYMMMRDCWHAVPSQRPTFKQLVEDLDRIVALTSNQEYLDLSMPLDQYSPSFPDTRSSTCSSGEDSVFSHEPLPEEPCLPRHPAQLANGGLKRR
T1 sequence (P35916 25-1363): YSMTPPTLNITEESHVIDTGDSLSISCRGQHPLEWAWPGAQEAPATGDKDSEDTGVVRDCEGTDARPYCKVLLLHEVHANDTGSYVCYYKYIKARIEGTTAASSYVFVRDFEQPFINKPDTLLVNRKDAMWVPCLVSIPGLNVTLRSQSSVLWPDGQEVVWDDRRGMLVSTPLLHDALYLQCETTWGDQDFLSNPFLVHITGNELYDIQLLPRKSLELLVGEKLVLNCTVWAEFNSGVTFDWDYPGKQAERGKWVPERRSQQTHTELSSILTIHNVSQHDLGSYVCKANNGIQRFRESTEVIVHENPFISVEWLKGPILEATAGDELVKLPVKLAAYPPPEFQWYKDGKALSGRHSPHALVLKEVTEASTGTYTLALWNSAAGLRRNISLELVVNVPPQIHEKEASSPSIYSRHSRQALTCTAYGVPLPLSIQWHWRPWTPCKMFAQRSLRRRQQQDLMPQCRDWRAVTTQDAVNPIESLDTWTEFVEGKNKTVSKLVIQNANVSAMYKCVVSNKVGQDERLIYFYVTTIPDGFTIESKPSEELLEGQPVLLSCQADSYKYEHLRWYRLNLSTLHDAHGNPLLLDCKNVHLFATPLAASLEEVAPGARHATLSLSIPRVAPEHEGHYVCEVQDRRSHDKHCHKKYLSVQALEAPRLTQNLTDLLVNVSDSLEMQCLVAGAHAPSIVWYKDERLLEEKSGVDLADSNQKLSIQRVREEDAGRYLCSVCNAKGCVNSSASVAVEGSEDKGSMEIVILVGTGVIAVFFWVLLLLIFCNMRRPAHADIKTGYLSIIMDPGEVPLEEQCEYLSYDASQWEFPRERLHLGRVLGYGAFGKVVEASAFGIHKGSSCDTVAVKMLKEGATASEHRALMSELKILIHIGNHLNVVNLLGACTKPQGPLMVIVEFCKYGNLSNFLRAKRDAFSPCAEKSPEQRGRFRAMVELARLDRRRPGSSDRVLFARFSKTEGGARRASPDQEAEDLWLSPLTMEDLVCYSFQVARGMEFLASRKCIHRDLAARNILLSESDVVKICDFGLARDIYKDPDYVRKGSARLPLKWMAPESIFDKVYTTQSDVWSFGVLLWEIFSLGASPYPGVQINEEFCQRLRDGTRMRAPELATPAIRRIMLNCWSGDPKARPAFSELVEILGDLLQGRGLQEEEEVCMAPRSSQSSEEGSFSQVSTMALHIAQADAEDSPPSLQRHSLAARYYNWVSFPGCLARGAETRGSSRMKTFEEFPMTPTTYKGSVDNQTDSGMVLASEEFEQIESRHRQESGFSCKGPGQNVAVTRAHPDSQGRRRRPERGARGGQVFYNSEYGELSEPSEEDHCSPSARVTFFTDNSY
Chain of VEGFR1 (P17948 27-1338): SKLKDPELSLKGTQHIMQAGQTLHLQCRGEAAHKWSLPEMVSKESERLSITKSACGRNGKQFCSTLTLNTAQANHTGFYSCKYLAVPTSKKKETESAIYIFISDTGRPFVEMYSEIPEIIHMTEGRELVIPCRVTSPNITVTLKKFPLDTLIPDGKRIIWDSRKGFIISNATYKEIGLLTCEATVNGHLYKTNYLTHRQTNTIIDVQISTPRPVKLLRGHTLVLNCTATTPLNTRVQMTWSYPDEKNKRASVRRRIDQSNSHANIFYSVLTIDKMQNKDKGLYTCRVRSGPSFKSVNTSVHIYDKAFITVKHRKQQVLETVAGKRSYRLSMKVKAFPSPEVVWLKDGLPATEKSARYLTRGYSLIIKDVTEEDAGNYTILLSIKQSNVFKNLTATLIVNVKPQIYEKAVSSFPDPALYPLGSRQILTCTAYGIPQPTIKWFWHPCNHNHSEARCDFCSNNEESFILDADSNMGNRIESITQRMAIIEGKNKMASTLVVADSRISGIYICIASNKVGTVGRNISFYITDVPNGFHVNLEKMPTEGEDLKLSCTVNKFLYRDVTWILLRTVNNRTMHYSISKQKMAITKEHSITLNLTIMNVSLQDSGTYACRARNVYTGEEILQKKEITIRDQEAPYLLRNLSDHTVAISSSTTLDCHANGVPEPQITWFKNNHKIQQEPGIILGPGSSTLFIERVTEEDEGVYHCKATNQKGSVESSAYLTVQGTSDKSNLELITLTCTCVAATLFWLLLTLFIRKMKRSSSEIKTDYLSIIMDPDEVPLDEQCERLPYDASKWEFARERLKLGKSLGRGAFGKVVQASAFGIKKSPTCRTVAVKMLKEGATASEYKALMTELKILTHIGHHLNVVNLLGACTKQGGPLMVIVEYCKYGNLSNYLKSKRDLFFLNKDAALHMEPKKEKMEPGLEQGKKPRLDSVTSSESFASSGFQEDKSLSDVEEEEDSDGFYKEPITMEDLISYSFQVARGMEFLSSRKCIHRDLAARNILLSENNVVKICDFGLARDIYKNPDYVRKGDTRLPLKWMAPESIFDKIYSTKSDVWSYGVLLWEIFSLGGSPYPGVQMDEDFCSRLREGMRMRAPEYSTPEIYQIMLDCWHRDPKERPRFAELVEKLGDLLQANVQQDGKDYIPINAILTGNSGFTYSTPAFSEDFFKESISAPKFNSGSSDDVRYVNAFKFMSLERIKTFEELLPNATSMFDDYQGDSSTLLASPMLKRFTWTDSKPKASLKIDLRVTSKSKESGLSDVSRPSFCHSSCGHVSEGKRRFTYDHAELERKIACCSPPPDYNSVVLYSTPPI

Consider `Cc1[nH]c(/C=C2\C(=O)Nc3ccc(F)cc32)c(C)c1C(=O)N[C@H]1CCN(C(=O)N(C)C)C1` [Vorolanib], for which the “Avg % Inhibition TIE2” value on TIE2 (1uM TKI) is recorded as 4.09%; on TIE2 (1uM TKI, listed as vorolanib), 4%; at TIE2 (10uM TKI), 21.27%; at TIE2 (10uM TKI, listed as vorolanib) it was 21%. Moreover, the “Avg % Inhibition VEGFR3” value at VEGFR3 (1uM TKI) was found to be 90.14%; at VEGFR3 (10uM TKI), 98.55%. Also, the “Avg % Inhibition FGFR2” value was 56.64% at FGFR2 (1uM TKI) and 90.82% on FGFR2 (10uM TKI). In addition, the “Avg % Inhibition VEGFR1” value is given as 54.61% on VEGFR1 (1uM TKI) and 77.43% on VEGFR1 (10uM TKI). Further, the “Avg % Inhibition FGFR1” value at FGFR1 (1uM TKI) is reported as 28.53%; at FGFR1 (10uM TKI), 65.32%.

These data come from article PMC11149885 (PLOS ONE, 2024).
